# Assay results published in the supplement of paper PMC10307832.
# Tests used:
# Test in all cases: relative viability (nuclei count vs DMSO), 5 days (fraction); higher = more cells survive
# SGI-1776 + Palbociclib = compound: CN1CCC(CNc2ccc3ncc(-c4cccc(OC(F)(F)F)c4)n3n2)CC1 [SGI-1776] + CC(=O)c1c(C)c2cnc(Nc3ccc(N4CCNCC4)cn3)nc2n(C2CCCC2)c1=O [Palbociclib] (partner 0.5 µM)
# Outline: (§1)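 Lung cancer cell lines were seeded in 1536-well plates and dosed by pin tool the next day, with either a single drug or a fixed anchor-drug dose combined with five library-drug doses (not always all listed) spaced in √10 steps. Five days later, one step fixed the cells and stained their nuclei (final 0.05% Triton X-100, 1% formaldehyde, 1 ug/ml Hoechst), and nuclei were counted on 4× images. Relative viability is the nuclei count in treated wells divided by the count in vehicle wells, and each value is the median of duplicate plates.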
# Entinostat + Pemetrexed = compound: Nc1ccccc1NC(=O)c1ccc(CNC(=O)OCc2cccnc2)cc1 [Entinostat] + Nc1nc2[nH]cc(CCc3ccc(C(=O)N[C@@H](CCC(=O)O)C(=O)O)cc3)c2c(=O)[nH]1 [Pemetrexed] (partner 0.2 µM)
# Outline: as §1
# [1] = compound: C1COCCN1C2=NC(=NC3=C2OC4=C3C=CC=N4)C5=CC(=CC=C5)NC(=O)C6=CN=C(C=C6)N + CC(C)C[C@H](NC(=O)[C@H](Cc1ccccc1)NC(=O)c1cnccn1)B(O)O [Bortezomib] (partner 0.002 µM)
# Outline: as §1
# [2] = compound: C1COCCN1C2=NC(=NC3=C2OC4=C3C=CC=N4)C5=CC(=CC=C5)NC(=O)C6=CN=C(C=C6)N + C[C@]1(O)C[C@@H](c2nc(-c3ccc4ccc(-c5ccccc5)nc4c3)c3c(N)nccn32)C1 [Linsitinib] (partner 1 µM)
# Outline: as §1
Cell Line,relative viability (SGI-1776 + Palbociclib; first compound 0.08 µM),relative viability (SGI-1776 + Palbociclib; first compound 0.8 µM),relative viability (SGI-1776 + Palbociclib; first compound 2.53 µM),relative viability (SGI-1776 + Palbociclib; first compound 8 µM),relative viability (Entinostat + Pemetrexed; first compound 0.02 µM),relative viability (Entinostat + Pemetrexed; first compound 0.06325 µM),relative viability (Entinostat + Pemetrexed; first compound 0.2 µM),relative viability (Entinostat + Pemetrexed; first compound 0.6325 µM),relative viability (Entinostat + Pemetrexed; first compound 2 µM),relative viability ([1]; first compound 0.02 µM),relative viability ([1]; first compound 0.06325 µM),relative viability ([1]; first compound 0.2 µM),relative viability ([1]; first compound 0.6325 µM),relative viability ([1]; first compound 2 µM),relative viability ([2]; first compound 0.02 µM),relative viability ([2]; first compound 0.06325 µM),relative viability ([2]; first compound 0.2 µM),relative viability ([2]; first compound 0.6325 µM),relative viability ([2]; first compound 2 µM)
NCI-H1437,0.311,0.315,0.257,0.261,0.318,0.282,0.231,0.178,0.148,0.428,0.733,0.483,0.474,0.185,1.05,1.08,1.07,1.01,0.314
EKVX,0.436,0.431,0.37,0.318,0.402,0.376,0.385,0.344,0.273,1.09,1.19,1.02,1.11,0.585,1.1,1.02,1.1,0.972,0.642
NCI-H460,0.243,0.133,0.121,0.151,0.0727,0.068,0.076,0.0606,0.041,1.45,1.13,1.27,1.02,0.125,0.839,0.959,0.834,0.583,0.225
NCI-H1993,0.466,0.662,0.526,0.504,0.53,0.609,0.558,0.536,0.472,1.2,1.13,0.967,0.891,0.893,0.768,0.627,0.689,0.74,0.667
HCC-78,0.481,0.428,0.446,0.458,0.922,0.873,0.946,0.871,0.908,0.394,0.61,0.555,0.444,0.497,0.425,0.329,0.569,0.492,0.415
NCI-H2087,0.299,0.231,0.293,0.204,0.68,0.581,0.67,0.613,0.304,0.802,0.889,0.854,0.862,0.361,0.988,0.883,0.985,0.969,0.573
H3255,0.363,0.34,0.328,0.311,0.586,0.57,0.549,0.414,0.378,0.622,0.718,0.687,0.805,0.611,0.908,1.09,1.04,0.949,0.702
NCI-H2126,0.389,0.334,0.361,0.331,0.71,0.687,0.674,0.405,0.306,1.07,1.18,1.1,1.03,0.879,0.73,0.79,0.68,0.581,0.601
LCLC-103H,0.524,0.456,0.475,0.401,0.472,0.463,0.443,0.454,0.426,0.969,1.24,1,0.978,0.722,1.05,1.15,1.21,1.03,0.978
RERF-LC-KJ,1.01,1.06,1.07,0.748,0.494,0.486,0.474,0.408,0.319,1.04,1.21,1.04,1.05,0.798,0.958,0.961,0.898,0.863,0.63
EBC-1,,,,,,,,,,0.541,0.521,0.431,0.455,0.417,0.826,1.07,0.875,0.847,0.58
HCC-15,0.694,0.666,0.772,0.51,0.237,0.215,0.237,0.197,0.159,1.03,1.04,0.994,1.05,0.677,0.871,0.926,0.813,0.832,0.634
NCI-H1650,0.373,0.354,0.344,0.228,0.389,0.455,0.44,0.359,0.241,0.179,0.23,0.205,0.191,0.188,,,,,
COR-L 105,0.477,0.388,0.396,0.355,1.12,1.23,1.12,0.816,0.56,0.655,0.872,0.657,0.66,0.474,0.984,1.03,0.822,0.905,0.672
NCI-H596,,,,,0.499,0.514,0.528,0.439,0.446,0.9,1.21,0.963,1,0.684,0.959,1.15,1.1,0.96,0.727
LXF-289,0.593,0.583,0.619,0.602,0.878,0.878,0.869,0.719,0.665,1.1,1.11,0.996,0.997,0.409,1.02,1.07,0.975,0.986,0.76
NCI-H1703,,,,,,,,,,0.229,0.278,0.249,0.267,0.236,0.412,0.567,0.747,0.757,0.381
NCI-H2170,0.376,0.349,0.408,0.364,0.255,0.283,0.273,0.228,0.229,,,,,,,,,,
NCI-H522,1.22,1.25,0.953,0.731,0.848,1.21,1.12,1.04,0.774,,,,,,,,,,
LOU-NH91,0.647,0.552,0.536,0.537,0.381,0.333,0.326,0.341,0.379,0.511,0.474,0.481,0.489,0.461,0.893,0.998,0.989,0.92,0.769
NCI-H1355,0.419,0.433,0.413,0.345,0.99,0.945,0.874,0.749,0.614,1.24,1.25,1.27,1.21,1.06,0.871,0.933,0.815,0.789,0.68

Cell Line,relative viability (SGI-1776 + Palbociclib; first compound 0.08 µM),relative viability (SGI-1776 + Palbociclib; first compound 0.8 µM),relative viability (SGI-1776 + Palbociclib; first compound 2.53 µM),relative viability (SGI-1776 + Palbociclib; first compound 8 µM),relative viability (Entinostat + Pemetrexed; first compound 0.02 µM),relative viability (Entinostat + Pemetrexed; first compound 0.06325 µM),relative viability (Entinostat + Pemetrexed; first compound 0.2 µM),relative viability (Entinostat + Pemetrexed; first compound 0.6325 µM),relative viability (Entinostat + Pemetrexed; first compound 2 µM),relative viability ([1]; first compound 0.02 µM),relative viability ([1]; first compound 0.06325 µM),relative viability ([1]; first compound 0.2 µM),relative viability ([1]; first compound 0.6325 µM),relative viability ([1]; first compound 2 µM),relative viability ([2]; first compound 0.02 µM),relative viability ([2]; first compound 0.06325 µM),relative viability ([2]; first compound 0.2 µM),relative viability ([2]; first compound 0.6325 µM),relative viability ([2]; first compound 2 µM)
NCI-H322M,0.515,0.508,0.476,0.451,0.66,0.692,0.716,0.599,0.583,1.2,1.25,1.25,1.24,0.965,0.817,0.981,0.884,0.924,0.759
NCI-H1395,0.615,0.588,0.611,0.457,0.884,1.05,0.911,0.76,0.719,,,,,,0.901,1,1.08,1.19,0.875
NCI-H2023,0.38,0.396,0.354,0.266,0.199,0.192,0.152,0.127,0.0994,0.995,1.13,0.914,0.75,0.48,0.639,0.755,0.602,0.543,0.333
NCI-H1666,0.64,0.66,0.614,0.663,0.866,0.989,0.913,0.75,0.579,0.781,0.902,0.735,0.588,0.486,0.867,0.908,0.804,0.817,0.681
HARA,0.308,0.289,0.261,0.264,0.233,0.22,0.31,0.257,0.247,1.14,1.35,1.24,1,0.875,1.15,1.04,1.02,0.783,0.361
NCI-H1944,0.346,0.312,0.303,0.279,0.498,0.576,0.465,0.244,0.22,,,,,,1.19,1.17,1.16,1.13,1
Calu-6,,,,,,,,,,1.1,1.18,0.919,0.957,0.806,0.943,1.14,0.975,0.9,0.527
NCI-H2342,0.609,0.539,0.55,0.535,0.811,0.849,0.708,0.638,0.668,,,,,,,,,,
ChaGo-K-1,0.911,0.974,0.967,0.911,0.269,0.262,0.271,0.264,0.259,0.938,1.01,0.568,1.12,0.746,,,,,
NCI-H1563,,,,,0.77,0.906,0.837,0.826,0.679,0.883,0.81,0.84,0.665,0.589,1.22,1.32,1.22,0.901,0.884
IA-LM,,,,,,,,,,,0.78,0.537,0.645,0.39,0.439,0.696,0.526,0.565,0.327
NCI-H1299,,,,,,,,,,1.06,1.05,1.02,1.03,0.798,0.922,1.13,0.953,1,0.805
NCI-H727,0.583,0.679,0.693,0.51,,,,,,0.748,0.834,0.806,1.12,0.536,0.284,0.31,0.24,0.257,0.256
SW 900,0.599,0.633,0.571,0.395,0.529,0.51,0.448,0.489,0.43,,,,,,,,,,
ABC-1,0.661,0.98,0.501,0.431,,,,,,0.311,0.315,0.288,0.298,0.302,0.724,0.93,0.713,0.635,0.538
NCI-H1648,0.286,0.327,0.226,0.319,0.736,0.685,0.772,0.38,0.407,,,,,,,,,,
LK-2,0.513,0.735,0.647,0.534,0.365,0.278,0.282,0.276,0.132,,,,,,0.464,0.797,0.625,0.624,0.395
SK-MES-1,0.379,0.315,0.327,0.241,0.929,1.01,1.04,0.944,0.577,,,,,,0.99,1.24,1.13,1.04,0.791
NCI-H1793,0.353,0.335,0.311,0.298,0.984,1.08,1.08,0.572,0.316,,,,,,0.953,0.845,0.834,0.911,0.475
A549,,,,,,,,,,,,,,,0.59,0.636,0.6,0.455,0.283
NCI-H358,0.112,0.141,0.129,0.113,0.163,0.168,0.158,0.128,0.135,,,,,,0.671,0.827,0.674,0.721,0.584
